Assay results published in PMC9005971, “Discovery of 2-(4-Acrylamidophenyl)-Quinoline-4-Carboxylic Acid Derivatives as Potent SIRT3 Inhibitors” (Frontiers in Chemistry, 2022).

Legend:
THP-1 cells = assay: In vitro antiproliferative CCK-8 assay, THP-1; format: cell-based; conditions: Homo sapiens, dose of 1 μM, mean of three experiments, read-out: THP-1 percentage inhibitory rate
Description: The proliferation of THP-1, MOLM-13, SEM and MV4-11 cells was tested by CCK-8 assay. Briefly, cells were seeded in 96-well plate with about 5 × 10^3 cells in each well. The cells were treated with P6 or Ara-C (0–10 µM) after 24 h of incubation. CCK-8 reagent ([…]) was added to each well after 72 h of incubation, and cells were incubated at 37°C for 4 h. The light absorbance at 450 nm was measured by using an Opsys microplate reader (Dynex Technologirs, Chantilly, VA, United States). Results are illustrated as percent of cell viability normalized to DMSO-treated control cells.

SIRT3 = biological target: T1, SIRT3 (Homo sapiens, UniProt Q9NTG7); assay: SIRT3 enzyme inhibitory assay (fluorescence); format: biochemical; conditions: dose of 10 μM; mean of three experiments; read-out: SIRT3 percentage inhibitory rate
T1 sequence (Q9NTG7 1-399): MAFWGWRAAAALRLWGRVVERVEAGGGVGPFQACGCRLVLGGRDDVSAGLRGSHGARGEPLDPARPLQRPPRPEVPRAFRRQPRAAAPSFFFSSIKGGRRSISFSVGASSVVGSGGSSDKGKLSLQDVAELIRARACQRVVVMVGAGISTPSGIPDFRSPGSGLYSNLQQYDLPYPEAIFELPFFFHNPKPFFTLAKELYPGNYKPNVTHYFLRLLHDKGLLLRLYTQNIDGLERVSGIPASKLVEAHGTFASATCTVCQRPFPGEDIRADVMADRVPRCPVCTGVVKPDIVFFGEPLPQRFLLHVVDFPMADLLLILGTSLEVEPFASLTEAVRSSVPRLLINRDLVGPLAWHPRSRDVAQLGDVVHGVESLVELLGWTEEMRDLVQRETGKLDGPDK
Description: (§1) All of the enzymatic reactions were conducted at 37°C for 30 min. […] The compounds were diluted in 10% DMSO and 5 ul of the dilution was added to each reaction mixture (50 ul). The assay was performed by quantitating the amount of fluorescent product generated from the enzyme reaction. Fluorescence intensity is then analyzed at excitation wavelength of 350–360 nm and emission wavelength of 450–460 nm on a SpectraMax M5 microtiter plate reader. The IC50 values were calculated using Prism GraphPad software.

SIRT2 = biological target: T2, SIRT2 (Homo sapiens, UniProt Q8IXJ6); assay: SIRT2 enzyme inhibitory assay (fluorescence); format: biochemical; conditions: for activity at 0.01 µM / activity at 0.033 µM / activity at 0.1 µM / activity at 0.333 µM / activity at 1 µM / activity at 3.3 µM / activity at 10 µM / activity at 33 µM / activity at 100 µM: SIRT2 enzyme activity; for activity at 0.01 µM: 10 nM; for activity at 0.033 µM: 33 nM; for activity at 0.1 µM: 100 nM; for activity at 0.333 µM: 333 nM
T2 sequence (Q8IXJ6 1-389): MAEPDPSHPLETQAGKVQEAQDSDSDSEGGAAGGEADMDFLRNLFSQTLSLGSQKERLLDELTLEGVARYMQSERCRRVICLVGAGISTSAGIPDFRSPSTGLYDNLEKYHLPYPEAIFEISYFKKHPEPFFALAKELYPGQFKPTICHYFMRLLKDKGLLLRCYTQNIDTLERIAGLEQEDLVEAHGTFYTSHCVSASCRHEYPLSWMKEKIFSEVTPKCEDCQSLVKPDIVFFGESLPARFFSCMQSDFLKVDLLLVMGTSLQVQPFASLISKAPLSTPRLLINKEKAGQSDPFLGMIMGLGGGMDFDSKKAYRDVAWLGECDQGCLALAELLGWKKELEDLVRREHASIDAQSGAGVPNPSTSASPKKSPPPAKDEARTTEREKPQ
Description: as §1

SIRT1 = biological target: T3, SIRT1 (Homo sapiens, UniProt Q96EB6); assay: SIRT1 enzyme inhibitory assay (fluorescence); format: biochemical; conditions: SIRT1 enzyme activity; for activity at 0.333 µM: 333 nM
T3 sequence (Q96EB6 1-747): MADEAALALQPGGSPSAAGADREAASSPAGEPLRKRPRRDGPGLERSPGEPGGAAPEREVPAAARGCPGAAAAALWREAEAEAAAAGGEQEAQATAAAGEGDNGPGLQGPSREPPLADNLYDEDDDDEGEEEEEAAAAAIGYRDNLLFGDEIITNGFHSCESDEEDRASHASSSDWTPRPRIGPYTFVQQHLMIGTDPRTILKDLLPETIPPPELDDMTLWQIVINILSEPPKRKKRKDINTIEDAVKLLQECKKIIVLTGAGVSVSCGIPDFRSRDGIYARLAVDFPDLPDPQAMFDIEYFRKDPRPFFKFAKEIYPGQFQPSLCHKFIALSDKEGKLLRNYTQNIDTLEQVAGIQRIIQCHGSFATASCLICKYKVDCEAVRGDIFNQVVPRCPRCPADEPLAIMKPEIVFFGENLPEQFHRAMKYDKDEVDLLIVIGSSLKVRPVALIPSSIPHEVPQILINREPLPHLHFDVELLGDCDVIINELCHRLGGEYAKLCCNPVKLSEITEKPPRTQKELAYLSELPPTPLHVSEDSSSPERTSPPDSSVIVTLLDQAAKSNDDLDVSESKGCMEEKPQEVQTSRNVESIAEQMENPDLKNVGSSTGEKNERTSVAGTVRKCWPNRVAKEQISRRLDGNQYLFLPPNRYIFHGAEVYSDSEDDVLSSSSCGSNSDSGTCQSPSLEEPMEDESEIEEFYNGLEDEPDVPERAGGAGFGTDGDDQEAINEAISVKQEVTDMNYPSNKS
Description: as §1

**Q.** How did the inhibition at 1 µM (THP-1 cells) turn out when `C=CC(=O)Nc1ccc(-c2cc(C(=O)N3CCN(c4ccc(F)cc4)CC3)c3ccccc3n2)cc1` [Compound P1] was run?
**A.** 32.5 ± 2.56%

**Q.** What about the inhibition at 10 µM (SIRT3) of the same compound?
**A.** 20.2 ± 1.22%

**Q.** Which results are given for `C=CC(=O)Nc1ccc(-c2cc(C(=O)N3CCN(C(=O)OC(C)(C)C)CC3)c3ccccc3n2)cc1` [Compound P2, 4-[2-(4-Acryloylamino-phenyl)-quinoline-4-carbonyl]-piperazine-1-carboxylic acid tert-butyl ester]?
**A.** inhibition at 1 µM (THP-1 cells): 26.4 ± 1.55%; inhibition at 10 µM (SIRT3): 23.5 ± 2.13%

**Q.** With `C=CC(=O)Nc1ccc(-c2cc(C(=O)N3CCN(C(C)C)CC3)c3ccccc3n2)cc1` [Compound P3, N-{4-[4-(4-Isopropyl-piperazine-1-carbonyl)-quinolin-2-yl]-phenyl}-acrylamide] as the compound, how does the inhibition at 1 µM (THP-1 cells) read?
**A.** 8.78 ± 0.37%

**Q.** And the inhibition at 10 µM (SIRT3)?
**A.** 30.6 ± 2.45%

**Q.** What does the source list for `C=CC(=O)Nc1ccc(-c2cc(C(=O)N3CCN(c4cccc(Cl)c4)CC3)c3ccccc3n2)cc1` [Compound P4, N-(4-{4-[4-(3-Chloro-phenyl)-piperazine-1-carbonyl]-quinolin-2-yl}-phenyl)-acrylamide]?
**A.** inhibition at 1 µM (THP-1 cells): 57.9 ± 3.04%; inhibition at 10 µM (SIRT3): 21.8 ± 1.62%

**Q.** Which inhibition at 1 µM (THP-1 cells) does the source give for `C=CC(=O)Nc1ccc(-c2cc(C(=O)N3CCN(c4ccc(Cl)cc4)CC3)c3ccccc3n2)cc1` [Compound P5, N-(4-{4-[4-(4-Chloro-phenyl)-piperazine-1-carbonyl]-quinolin-2-yl}-phenyl)-acrylamide] here?
**A.** 56 ± 2.66%

**Q.** What about the inhibition at 10 µM (SIRT3) of the same compound?
**A.** 22.6 ± 1.87%

**Q.** Which inhibition at 1 µM (THP-1 cells) does the source give for `C=CC(=O)Nc1ccc(-c2cc(C(=O)N3CCN(c4ccc(OC)cc4)CC3)c3ccccc3n2)cc1` [Compound P7, N-(4-{4-[4-(4-Methoxy-phenyl)-piperazine-1-carbonyl]-quinolin-2-yl}-phenyl)-acrylamide] here?
**A.** 12.4 ± 1.07%

**Q.** What about the inhibition at 10 µM (SIRT3) of the same compound?
**A.** 24.9 ± 1.47%

**Q.** Which results are given for `C=CC(=O)Nc1ccc(-c2cc(C(=O)N3CCN(c4ccccc4OC)CC3)c3ccccc3n2)cc1` [Compound P8, N-(4-{4-[4-(2-Methoxy-phenyl)-piperazine-1-carbonyl]-quinolin-2-yl}-phenyl)-acrylamide]?
**A.** inhibition at 1 µM (THP-1 cells): 73.7 ± 3.74%; inhibition at 10 µM (SIRT3): 45.5 ± 3.67%

**Q.** How did the inhibition at 1 µM (THP-1 cells) turn out when `C=CC(=O)Nc1ccc(-c2cc(C(=O)N3CCN(CCc4ccccc4)CC3)c3ccccc3n2)cc1` [Compound P9, N-{4-[4-(4-Phenethyl-piperazine-1-carbonyl)-quinolin-2-yl]-phenyl}-acrylamide] was run?
**A.** 11.7 ± 0.88%

**Q.** What about the inhibition at 10 µM (SIRT3) of the same compound?
**A.** 30.2 ± 1.94%

**Q.** `C=CC(=O)Nc1ccc(-c2cc(C(=O)Nc3ccc(N4CCN(C)CC4)cc3)c3ccccc3n2)cc1` [Compound P19] was tested. Which activity at 0.01 µM (SIRT2; Repeat1) did it give?
**A.** 101%

**Q.** What about the activity at 0.01 µM (SIRT2; Repeat2) of the same compound?
**A.** 99%

**Q.** What about the activity at 0.033 µM (SIRT2; Repeat1) of the same compound?
**A.** 99%

**Q.** What about the activity at 0.033 µM (SIRT2; Repeat2) of the same compound?
**A.** 99%

**Q.** And the activity at 0.1 µM (SIRT2; Repeat1)?
**A.** 101%

**Q.** And the activity at 0.1 µM (SIRT2; Repeat2)?
**A.** 101%

**Q.** And the activity at 0.333 µM (SIRT2; Repeat1)?
**A.** 96%

**Q.** And the activity at 0.333 µM (SIRT2; Repeat2)?
**A.** 98%

**Q.** What about the activity at 1 µM (SIRT2; Repeat1) of the same compound?
**A.** 97%

**Q.** What about the activity at 1 µM (SIRT2; Repeat2) of the same compound?
**A.** 98%

**Q.** What about the activity at 3.3 µM (SIRT2; Repeat1) of the same compound?
**A.** 100%

**Q.** And the activity at 3.3 µM (SIRT2; Repeat2)?
**A.** 99%

**Q.** What about the activity at 10 µM (SIRT2; Repeat1) of the same compound?
**A.** 91%

**Q.** What about the activity at 10 µM (SIRT2; Repeat2) of the same compound?
**A.** 86%

**Q.** And the activity at 33 µM (SIRT2; Repeat1)?
**A.** 79%

**Q.** What about the activity at 33 µM (SIRT2; Repeat2) of the same compound?
**A.** 76%

**Q.** What about the activity at 100 µM (SIRT2; Repeat1) of the same compound?
**A.** 34%

**Q.** And the activity at 100 µM (SIRT2; Repeat2)?
**A.** 28%

**Q.** And the IC50 (SIRT2; mean of two experiments)?
**A.** 63.6 ± 4.2 µM

**Q.** Which results are given for `NC(=O)c1cccnc1` [Nicotinamide, reference compound]?
**A.** activity at 0.01 µM (SIRT2; Repeat1): 100%; activity at 0.01 µM (SIRT2; Repeat2): 99%; activity at 0.033 µM (SIRT2; Repeat1): 99%; activity at 0.033 µM (SIRT2; Repeat2): 98%; activity at 0.1 µM (SIRT2; Repeat1): 97%; activity at 0.333 µM (SIRT2; Repeat1): 100%; activity at 0.333 µM (SIRT2; Repeat2): 100%; activity at 1 µM (SIRT2; Repeat2): 99%; activity at 3.3 µM (SIRT2; Repeat1): 92%; activity at 3.3 µM (SIRT2; Repeat2): 91%; activity at 10 µM (SIRT2; Repeat1): 79%; activity at 10 µM (SIRT2; Repeat2): 69%; activity at 33 µM (SIRT2; Repeat1): 39%; activity at 33 µM (SIRT2; Repeat2): 43%; activity at 100 µM (SIRT2; Repeat1): 17%; activity at 100 µM (SIRT2; Repeat2): 12%; activity at 0.01 µM (SIRT1; 10 nM, Repeat2): 98%; activity at 0.033 µM (SIRT1; 33 nM, Repeat2): 99%; activity at 0.1 µM (SIRT1; 100 nM, Repeat1): 98%; activity at 0.333 µM (SIRT1; Repeat1): 99%; activity at 0.333 µM (SIRT1; Repeat2): 97%; activity at 1 µM (SIRT1; 1 µM, Repeat1): 100%; activity at 3.3 µM (SIRT1; Repeat1): 93%; activity at 3.3 µM (SIRT1; Repeat2): 96%; activity at 10 µM (SIRT1; Repeat1): 79%; activity at 10 µM (SIRT1; Repeat2): 73%; activity at 33 µM (SIRT1; Repeat1): 59%; activity at 33 µM (SIRT1; Repeat2): 52%; activity at 100 µM (SIRT1; Repeat1): 10%; activity at 100 µM (SIRT1; Repeat2): 17%
